In brackets after ≈: the same amount, converted by molar mass.
Tests used:
[1] = in water at 25° C.; cited from earlier work
eye [2] = assay: sustained release doses of Bimatoprost, reduction in intraocular pressure; format: in vivo; settings: sustained release 20 to 200 ng daily, 0.2 to 2% of the daily drop dosage
Description: Commercially available solution concentrations of Bimatoprost are 0.03% by weight, often delivered once per day. Although the sustained release amount of Bimatnoprost released each day can vary, a sustained release of […] per day corresponds to about 2% of the 15 μg of Bimatoprost applied with a single drop of a 0.03% solution.

eye [3] = settings: cited from earlier work
[4] = topical drop, drug available to the eye; cited from earlier work

CCNC(=O)CCC/C=C\C[C@@H]1[C@@H](/C=C/[C@@H](O)CCc2ccccc2)[C@H](O)C[C@@H]1O [Bimatoprost]
aqueous solubility [1]: 300 µg/mL (≈ 722 µM)
reduction in intraocular pressure (eye [2]): at least some reduction in intraocular pressure

CC(C)OC(=O)CCC/C=C\C[C@@H]1[C@@H](CC[C@@H](O)CCc2ccccc2)[C@H](O)C[C@@H]1O [Latanoprost]
duration of effective IOP lowering (eye [3]; about 200 ng of drug remaining on the eye after a Xalatan drop (2.5 μg)): at least 24 hours
IOP reduction relative to that of the 50 μg/mL QD dose (eye [3]; lowest doses of 12.5 μg/mL QD or 15 μg/mL BID, eye drops): 60-75%

CC(C)(C)NC[C@H](O)COc1nsnc1N1CCOCC1 [Timolol]
bioavailability [4]: 30-50%

— patent publication US10300014B2, “Nasolacrimal drainage system implants for drug therapy” (Mati Therapeutics Inc., priority 2006, dated 2019)
